Results: ChEMBL document CHEMBL2429836, “Theoretical studies, synthesis, and biological activity of 1-[(4-methylphenyl)sulfonyl]-5-oxo-2,3,4,5-tetrahydro-1H-1-benzazepine-4-carbonitrile (C9) as a non-peptide antagonist of the arginine vasopressin V1a and V2 receptors” (Med Chem Res, 2013)
Active and inactive are the calls of the source. The rule behind the calls is not given here. Numbered stars: 1 amine (or outer) side, 2 acyl side, 3 side chain; on linkers, the order of the positions; unused ones are H or OH. Bridge positions count the residues as written; N and C are the ends. Peptide text beside a SMILES is read from it. X1 = CC(C)(CC(=O)[*:1])S[*:2]

Tests used:
[1] = biological target: Vasopressin V1a receptor (Rattus norvegicus) (UniProt P30560); assay: Antagonist activity at vasopressin V1a receptor in rat thoracic aorta assessed as inhibition of AVP-induced vascular smooth muscle contraction at 590 uM; format: tissue-based
Vasopressin V1a receptor (Rattus norvegicus), sequence (P30560 whole entry, looked up): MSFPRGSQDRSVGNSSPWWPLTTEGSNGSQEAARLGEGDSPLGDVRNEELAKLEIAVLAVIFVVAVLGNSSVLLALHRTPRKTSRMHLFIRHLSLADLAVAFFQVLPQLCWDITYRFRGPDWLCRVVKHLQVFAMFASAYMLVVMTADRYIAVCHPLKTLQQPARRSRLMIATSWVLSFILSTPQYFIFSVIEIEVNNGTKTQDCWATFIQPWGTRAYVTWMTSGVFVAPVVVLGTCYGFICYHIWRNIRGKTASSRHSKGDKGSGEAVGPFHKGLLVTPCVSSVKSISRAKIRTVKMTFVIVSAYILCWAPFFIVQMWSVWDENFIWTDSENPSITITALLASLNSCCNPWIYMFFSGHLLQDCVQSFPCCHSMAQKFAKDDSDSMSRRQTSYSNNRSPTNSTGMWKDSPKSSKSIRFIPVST

[2] = biological target: Vasopressin V1a receptor (Rattus norvegicus) (UniProt P30560); assay: Antagonist activity at vasopressin V1a receptor in rat thoracic aorta assessed as inhibition of AVP-induced vascular smooth muscle contraction at 59 uM; format: tissue-based
[3] = biological target: Vasopressin V1a receptor (Rattus norvegicus) (UniProt P30560); assay: Antagonist activity at vasopressin V1a receptor in rat thoracic aorta assessed as inhibition of AVP-induced vascular smooth muscle contraction at 5.9 uM; format: tissue-based
[4] = test system: Rattus norvegicus; assay: Antidiuretic acitivity in water-loaded Wistar rat assessed as inhibition of AVP-mediated decrease in urine flow at 100 ug/kg, iv; format: functional, organism-based
[5] = biological target: Vasopressin V1a receptor (Rattus norvegicus) (UniProt P30560); assay: Antagonist activity at vasopressin V1a receptor in rat thoracic aorta assessed as inhibition of AVP-induced vascular smooth muscle contraction; format: tissue-based
[6] = biological target: Vasopressin V1a receptor (Rattus norvegicus) (UniProt P30560); assay: Antagonist activity at vasopressin V1a receptor in endothelium intact rat thoracic aorta assessed as inhibition of AVP-induced vascular smooth muscle contraction at 10 uM
[7] = biological target: Vasopressin V1a receptor (Rattus norvegicus) (UniProt P30560); assay: Antagonist activity at vasopressin V1a receptor in endothelium-denuded rat thoracic aorta assessed as inhibition of AVP-induced vascular smooth muscle contraction at 10 uM

| inhibition [1] | inhibition [2] [%] | inhibition [3] [%] | inhibition [5] | SMILES | inhibition [4] | inhibition [6] | inhibition [7] |
| --- | --- | --- | --- | --- | --- | --- | --- |
| Active | 70 | 25 | Dose-dependent effect | Cc1ccc(S(=O)(=O)N2CCC(C#N)C(=O)c3ccccc32)cc1 (configuration not stated) | Active | – | – |
| – | – | – | – | COc1ccc(C[C@@H]2NC(=O)CC(C)(C)SSC[C@@H](C(=O)N3CCC[C@H]3C(=O)N[C@@H](CCCN=C(N)N)C(=O)NCC(N)=O)NC(=O)[C@H](CC(N)=O)NC(=O)[C@H](CCC(N)=O)NC(=O)[C@H](Cc3ccccc3)NC2=O)cc1 (Y(Me)FQNCPRG-NH2; linker N-5 via X1) | – | Active | Active |
